Legend:
EGFR L858R/T790M/C797S = EGFR L858R/T790M/C797S (Homo sapiens, UniProt P00533, C797S/L858R/T790M); experiment: HTRF-based EGFR biochemical assay, L858R/T790M/C797S; conditions: 100 μM ATP, enzyme 0.02 nM
Protocol: (§1) EGFR biochemical activity measurements were carried out using the homogeneous time-resolved fluorescence (HTRF) assay (Cisbio). Inhibitors and DMSO normalizations were first dispensed to empty black low-volume 384-well plates (Corning) with D300 digital liquid dispenser (HP). All reactions were carried out at room temperature and solutions were added to plates with a Multidrop Combi Reagent Dispenser (ThermoFisher). The reaction mixture (10 μL final volume) contained 1 μM tyrosine kinase peptide-biotin substrate and mutant EGFR in a reaction buffer (50 mM HEPES pH 7.0, 5 mM MgCl2, 1 mM MnCl2, 0.01% BSA, 2 mM TCEP, 0.1 mM NaVO4). […] Enzyme reaction solution (2× concentrations, 5 μL) was added to 384-well plates containing compounds and incubated for 30 mins. Enzyme reactions were initiated with the addition of 5 μL of ATP to a final concentration of 100 μM and reacted for 20 mins.

EGFR WT = EGFR WT (Homo sapiens, UniProt P00533); experiment: HTRF-based EGFR biochemical assay, WT; conditions: 100 μM ATP, enzyme 5 nM
EGFR L858R = EGFR L858R (Homo sapiens, UniProt P00533, L858R); experiment: HTRF-based EGFR biochemical assay, L858R; conditions: 100 μM ATP, enzyme 0.1 nM
Protocol: as §1

EGFR L858R/T790M = EGFR L858R/T790M (Homo sapiens, UniProt P00533, L858R/T790M); experiment: HTRF-based EGFR biochemical assay, L858R/T790M; conditions: 100 μM ATP, enzyme 0.02 nM
Protocol: as §1

[1] = target: EGFR L858R/T790M Ba/F3 cells (Homo sapiens, UniProt P00533, T790M/L858R, cells depend on it); experiment: Ba/F3 cell proliferation (Cell Titer Glo), L858R/T790M; type: cell-based, murine; conditions: Ba/F3, 72 hours, value in parentheses, meaning not explained, read-out: L858R/T790M, inhibition of growth (value in parentheses)
Protocol: (§2) 100 units/mL streptomycin. The EGFR I941R mutation was introduced via site directed mutagenesis using the Quick Change Site-Directed Mutagenesis kit (Stratagene; La Jolla, CA) according to the manufacturer's instructions. All constructs were confirmed by DNA sequencing. The constructs were shuttled into the retroviral vector JP1540 using the Cre-recombination system (Agilent Technologies, Santa Clara, CA). […] Stable clones were obtained by selection in puromycin (2 μg/ml).
(§3) Growth and inhibition of growth was assessed by the Cell Titer Glo assay (Promega, Madison, WI) and was performed according to the manufacturer's instructions. The Cell Titer Glo assay is a luminescence-based method used to determine the number of viable cells based on quantitation of the ATP present, which is directly proportional to the amount of metabolically active cells present. […] All experimental points were set up in triplicates in 384-well plates and all experiments were repeated at least three times. […] The curves were fitted using a non-linear regression model with a sigmoidal dose response.

[2] = target: EGFR L858R/T790M/C797S Ba/F3 cells (Homo sapiens, UniProt P00533, T790M/C797S/L858R, cells depend on it); experiment: Ba/F3 cell proliferation (Cell Titer Glo), L858R/T790M/C797S; type: cell-based, murine; conditions: Ba/F3, 72 hours, value in parentheses, meaning not explained, read-out: L858R/T790M/C797S, inhibition of growth (value in parentheses)
Protocol: as §2, §3

WT EGFR Ba/F3 cells = WT EGFR Ba/F3 cells (Homo sapiens, UniProt P00533, cells depend on it, form not given); experiment: Ba/F3 cell proliferation (Cell Titer Glo), WT; type: cell-based, murine; conditions: Ba/F3, 72 hours, value in parentheses, meaning not explained, read-out: WT, inhibition of growth (value in parentheses)
Protocol: as §2, §3

EGFR L858R Ba/F3 cells = EGFR L858R Ba/F3 cells (Homo sapiens, UniProt P00533, L858R, cells depend on it); experiment: Ba/F3 cell proliferation (Cell Titer Glo), L858R; type: cell-based, murine; conditions: Ba/F3, 72 hours, value in parentheses, meaning not explained, read-out: L858R, inhibition of growth (value in parentheses)
Protocol: as §2, §3

Sequence of EGFR L858R/T790M Ba/F3 cells (P00533 whole entry T790M/L858R): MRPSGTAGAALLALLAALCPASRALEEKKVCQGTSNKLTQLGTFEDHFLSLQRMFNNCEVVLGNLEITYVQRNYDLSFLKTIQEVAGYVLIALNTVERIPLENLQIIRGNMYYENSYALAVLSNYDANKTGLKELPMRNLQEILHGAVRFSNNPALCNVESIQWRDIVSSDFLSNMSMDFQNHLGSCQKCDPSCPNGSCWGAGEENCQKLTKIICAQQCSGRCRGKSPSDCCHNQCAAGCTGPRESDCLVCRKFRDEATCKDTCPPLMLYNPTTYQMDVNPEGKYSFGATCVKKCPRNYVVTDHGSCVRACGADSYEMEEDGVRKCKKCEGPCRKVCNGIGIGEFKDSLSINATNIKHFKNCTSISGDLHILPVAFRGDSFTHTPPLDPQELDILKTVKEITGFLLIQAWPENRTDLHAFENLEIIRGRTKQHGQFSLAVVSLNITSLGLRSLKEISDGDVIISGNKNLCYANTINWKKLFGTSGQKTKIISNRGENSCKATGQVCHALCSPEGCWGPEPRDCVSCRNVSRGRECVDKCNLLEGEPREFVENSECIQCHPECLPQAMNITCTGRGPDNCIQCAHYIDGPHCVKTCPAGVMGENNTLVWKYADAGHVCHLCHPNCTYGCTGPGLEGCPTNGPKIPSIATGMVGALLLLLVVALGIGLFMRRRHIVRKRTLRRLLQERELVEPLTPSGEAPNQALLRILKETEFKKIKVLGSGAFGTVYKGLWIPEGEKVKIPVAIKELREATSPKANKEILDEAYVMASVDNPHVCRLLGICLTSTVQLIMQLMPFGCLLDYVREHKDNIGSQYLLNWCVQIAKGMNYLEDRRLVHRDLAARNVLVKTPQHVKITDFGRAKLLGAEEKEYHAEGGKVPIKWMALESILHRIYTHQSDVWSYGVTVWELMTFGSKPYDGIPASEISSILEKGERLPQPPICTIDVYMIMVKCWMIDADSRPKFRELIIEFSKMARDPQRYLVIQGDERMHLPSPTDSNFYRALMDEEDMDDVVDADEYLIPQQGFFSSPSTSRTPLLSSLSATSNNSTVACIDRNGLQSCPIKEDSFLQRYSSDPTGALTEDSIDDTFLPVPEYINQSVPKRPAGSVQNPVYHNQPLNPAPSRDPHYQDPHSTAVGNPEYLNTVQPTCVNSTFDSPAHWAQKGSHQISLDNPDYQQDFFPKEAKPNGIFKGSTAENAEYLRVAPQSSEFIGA
Sequence of EGFR L858R/T790M (P00533 25-1210 T790M/L858R): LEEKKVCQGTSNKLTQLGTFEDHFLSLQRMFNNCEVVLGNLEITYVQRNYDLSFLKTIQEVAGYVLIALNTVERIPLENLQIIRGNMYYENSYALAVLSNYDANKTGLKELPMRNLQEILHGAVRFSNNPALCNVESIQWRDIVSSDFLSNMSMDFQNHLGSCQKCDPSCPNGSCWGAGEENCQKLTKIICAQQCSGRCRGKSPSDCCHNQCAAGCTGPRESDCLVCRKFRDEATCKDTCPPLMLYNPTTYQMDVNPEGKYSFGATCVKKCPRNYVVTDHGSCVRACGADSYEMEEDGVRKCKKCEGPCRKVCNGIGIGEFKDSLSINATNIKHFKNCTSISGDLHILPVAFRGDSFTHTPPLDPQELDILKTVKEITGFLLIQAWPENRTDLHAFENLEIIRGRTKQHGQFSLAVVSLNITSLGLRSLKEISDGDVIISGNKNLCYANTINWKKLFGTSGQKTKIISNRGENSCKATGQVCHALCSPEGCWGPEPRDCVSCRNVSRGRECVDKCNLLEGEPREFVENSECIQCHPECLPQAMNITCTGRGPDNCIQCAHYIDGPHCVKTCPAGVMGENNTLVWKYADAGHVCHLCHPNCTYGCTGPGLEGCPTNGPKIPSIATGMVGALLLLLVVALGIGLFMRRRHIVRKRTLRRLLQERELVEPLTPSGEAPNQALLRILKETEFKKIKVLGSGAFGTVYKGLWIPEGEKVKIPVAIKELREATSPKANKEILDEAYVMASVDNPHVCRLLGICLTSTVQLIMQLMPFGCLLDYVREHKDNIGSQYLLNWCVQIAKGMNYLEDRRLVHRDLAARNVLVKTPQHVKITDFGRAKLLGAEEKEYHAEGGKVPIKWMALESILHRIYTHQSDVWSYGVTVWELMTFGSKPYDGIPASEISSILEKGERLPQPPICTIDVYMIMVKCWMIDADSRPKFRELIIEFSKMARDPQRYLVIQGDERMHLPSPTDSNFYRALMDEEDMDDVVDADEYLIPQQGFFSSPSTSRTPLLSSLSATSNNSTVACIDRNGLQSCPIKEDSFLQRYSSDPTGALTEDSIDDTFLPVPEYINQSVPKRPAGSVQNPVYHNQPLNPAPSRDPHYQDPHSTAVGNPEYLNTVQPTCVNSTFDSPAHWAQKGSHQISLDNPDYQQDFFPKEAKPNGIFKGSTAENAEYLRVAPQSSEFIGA
Sequence of EGFR L858R/T790M/C797S (P00533 25-1210 T790M/C797S/L858R): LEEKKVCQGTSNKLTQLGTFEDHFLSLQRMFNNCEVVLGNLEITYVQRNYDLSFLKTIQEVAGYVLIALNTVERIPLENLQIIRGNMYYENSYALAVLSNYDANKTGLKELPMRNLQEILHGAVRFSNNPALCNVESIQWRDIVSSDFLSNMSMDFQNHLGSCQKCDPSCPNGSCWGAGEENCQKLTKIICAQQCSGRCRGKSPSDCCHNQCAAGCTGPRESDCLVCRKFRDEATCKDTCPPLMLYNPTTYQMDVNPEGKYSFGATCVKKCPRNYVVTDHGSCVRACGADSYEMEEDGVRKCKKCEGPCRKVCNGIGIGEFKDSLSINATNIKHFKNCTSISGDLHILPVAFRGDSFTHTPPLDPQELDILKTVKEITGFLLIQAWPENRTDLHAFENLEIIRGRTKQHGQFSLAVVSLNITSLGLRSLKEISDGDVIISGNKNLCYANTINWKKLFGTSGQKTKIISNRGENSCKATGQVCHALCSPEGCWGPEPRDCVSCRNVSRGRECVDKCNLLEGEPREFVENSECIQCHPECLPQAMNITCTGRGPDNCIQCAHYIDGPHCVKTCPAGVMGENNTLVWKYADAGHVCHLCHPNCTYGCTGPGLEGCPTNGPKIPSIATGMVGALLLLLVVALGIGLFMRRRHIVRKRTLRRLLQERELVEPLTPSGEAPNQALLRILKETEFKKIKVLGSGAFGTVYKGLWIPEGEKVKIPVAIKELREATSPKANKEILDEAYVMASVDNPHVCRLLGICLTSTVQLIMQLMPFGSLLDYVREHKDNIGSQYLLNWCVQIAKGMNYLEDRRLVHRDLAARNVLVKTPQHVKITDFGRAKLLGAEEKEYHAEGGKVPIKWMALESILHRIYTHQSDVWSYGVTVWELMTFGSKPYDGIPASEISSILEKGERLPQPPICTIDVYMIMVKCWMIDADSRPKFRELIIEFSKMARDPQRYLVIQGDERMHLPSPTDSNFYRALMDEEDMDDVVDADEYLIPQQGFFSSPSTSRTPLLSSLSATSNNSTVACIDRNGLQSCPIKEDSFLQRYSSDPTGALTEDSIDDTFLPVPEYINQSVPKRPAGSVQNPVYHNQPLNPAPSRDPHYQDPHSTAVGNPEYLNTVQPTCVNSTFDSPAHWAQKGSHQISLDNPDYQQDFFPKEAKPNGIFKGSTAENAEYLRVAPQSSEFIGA
Sequence of EGFR L858R (P00533 25-1210 L858R): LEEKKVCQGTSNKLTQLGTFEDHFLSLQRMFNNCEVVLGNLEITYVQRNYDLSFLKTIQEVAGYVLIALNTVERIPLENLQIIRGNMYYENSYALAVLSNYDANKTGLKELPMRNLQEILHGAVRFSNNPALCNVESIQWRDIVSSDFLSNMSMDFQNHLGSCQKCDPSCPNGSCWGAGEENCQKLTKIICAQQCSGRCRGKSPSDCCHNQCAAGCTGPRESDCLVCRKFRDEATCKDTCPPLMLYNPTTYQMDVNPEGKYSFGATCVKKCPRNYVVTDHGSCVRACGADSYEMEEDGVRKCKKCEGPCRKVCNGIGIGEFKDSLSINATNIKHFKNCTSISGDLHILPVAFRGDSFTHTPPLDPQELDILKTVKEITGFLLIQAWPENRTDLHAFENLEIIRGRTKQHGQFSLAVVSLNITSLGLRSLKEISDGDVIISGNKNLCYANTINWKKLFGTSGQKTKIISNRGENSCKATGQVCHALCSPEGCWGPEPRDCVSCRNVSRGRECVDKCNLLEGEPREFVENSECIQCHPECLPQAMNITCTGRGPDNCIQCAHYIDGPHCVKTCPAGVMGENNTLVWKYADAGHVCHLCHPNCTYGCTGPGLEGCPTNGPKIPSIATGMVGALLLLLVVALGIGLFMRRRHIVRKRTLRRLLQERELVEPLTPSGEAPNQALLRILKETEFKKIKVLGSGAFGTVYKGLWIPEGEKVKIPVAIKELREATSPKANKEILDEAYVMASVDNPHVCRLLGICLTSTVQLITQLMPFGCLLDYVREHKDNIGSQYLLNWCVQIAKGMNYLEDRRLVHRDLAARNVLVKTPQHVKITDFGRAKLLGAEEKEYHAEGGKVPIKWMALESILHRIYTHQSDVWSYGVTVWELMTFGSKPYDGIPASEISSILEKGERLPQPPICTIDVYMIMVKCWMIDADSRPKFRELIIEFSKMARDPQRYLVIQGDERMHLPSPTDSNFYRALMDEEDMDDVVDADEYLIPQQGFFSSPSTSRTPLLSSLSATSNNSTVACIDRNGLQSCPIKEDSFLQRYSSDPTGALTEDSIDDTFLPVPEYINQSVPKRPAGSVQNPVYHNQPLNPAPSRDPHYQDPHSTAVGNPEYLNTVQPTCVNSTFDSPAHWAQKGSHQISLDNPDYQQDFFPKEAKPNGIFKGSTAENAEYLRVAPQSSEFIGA

Compound	IC50 (EGFR L858R/T790M/C797S)	IC50 (EGFR WT)	IC50 (EGFR L858R)	IC50 (EGFR L858R/T790M)	EC50 [1]	EC50 [2]	EC50 (WT EGFR Ba/F3 cells)	EC50 (EGFR L858R Ba/F3 cells)
CSc1nc(-c2cccc(NC(=O)c3c(F)ccc(O)c3CN3Cc4ccccc4C3=O)c2)c[nH]1 [Compound 058, 6-fluoro-3-hydroxy-N-(3-(2-(methylthio)-1H-imidazol-4-yl)phenyl)-2-((1-oxoisoindolin-2-yl)methyl)benzamide]	> 100 µM	> 100 µM	> 100 µM	> 100 µM				
CSc1nc(-c2cccc(NC(=O)c3ccccc3CN3C(=O)c4ccccc4C3=O)c2)c(-c2ccnc(Nc3ccccc3)c2)[nH]1 [Compound 067, 2-((1,3-dioxoisoindolin-2-yl)methyl)-N-(3-(2-(methylthio)-5-(2-(phenylamino)pyridin-4-yl)-1H-imidazol-4-yl)phenyl)benzamide]					> 10 µM	> 10 µM	> 3.3 µM	> 8.7 µM
C=CC(=O)Nc1ccc(OC)c(Nc2cc(-c3[nH]c(SC)nc3-c3cccc(NC(=O)c4ccccc4CN4Cc5ccccc5C4=O)c3)ccn2)c1 [Compound 064, N-(3-(5-(2-((5-acrylamido-2-methoxyphenyl)amino)pyridin-4-yl)-2-(methylthio)-1H-imidazol-4-yl)phenyl)-2-((1-oxoisoindolin-2-yl)methyl)benzamide]	0.206 µM	0.701 µM	0.011 µM	0.008 µM	2.5 µM	> 10 µM	> 4 µM	0.5 µM
CSc1nc(-c2cccc(NC(=O)c3ccccc3CN3Cc4ccccc4C3=O)c2)c(-c2ccnc(NC(C)=O)c2)[nH]1 [Compound 047, N-(3-(5-(2-acetamidopyridin-4-yl)-2-(methylthio)-1H-imidazol-4-yl)phenyl)-2-((1-oxoisoindolin-2-yl)methyl)benzamide]	0.61 µM	> 100 µM	0.096 µM	0.759 µM	> 10 µM	> 10 µM	> 4.3 µM	> 10 µM
CSc1nc(-c2cccc(NC(=O)c3c(F)cccc3F)c2)c(-c2ccnc(Nc3ccccc3)c2)[nH]1 [Compound 010, 2,6-difluoro-N-(3-(2-(methylthio)-5-(2-(phenylamino)pyridin-4-yl)-1H-imidazol-4-yl)phenyl)benzamide]		0.015 µM	0.032 µM	2.38 µM				
CSc1nc(-c2cccc(NC(=O)c3c(F)ccc(O)c3CN3C(=O)c4ccccc4C3=O)c2)c(-c2ccnc(Nc3ccccc3)c2)[nH]1 [Compound 068, 2-((1,3-dioxoisoindolin-2-yl)methyl)-6-fluoro-3-hydroxy-N-(3-(2-(methylthio)-5-(2-(phenylamino)pyridin-4-yl)-1H-imidazol-4-yl)phenyl)benzamide]					> 10 µM	> 10 µM	> 5.6 µM	> 10 µM
CSc1nc(-c2cccc(NC(=O)c3ccccc3CN3Cc4ccccc4C3=O)c2)c(-c2ccnc(Nc3ccccc3)c2)[nH]1 [Compound 069, N-(3-(2-(methylthio)-5-(2-(phenylamino)pyridin-4-yl)-1H-imidazol-4-yl)phenyl)-2-((1-oxoisoindolin-2-yl)methyl)benzamide]					> 5.6 µM	> 10 µM	> 2.1 µM	> 5.3 µM
CSc1nc(-c2cccc(NC(=O)c3cc(O)ccc3F)c2)c[nH]1 [Compound 060]	> 100 µM	> 100 µM		> 100 µM				
CSc1nc(-c2ccnc(NC(C)=O)c2)c(-c2cccc(NC(=O)c3c(F)ccc(O)c3CN3Cc4ccccc4C3=O)c2)n1C [Compound 059, N-(3-(4-(2-acetamidopyridin-4-yl)-1-methyl-2-(methylthio)-1H-imidazol-5-yl)phenyl)-6-fluoro-3-hydroxy-2-((1-oxoisoindolin-2-yl)methyl)benzamide]	> 100 µM	> 100 µM	3.07 µM	> 100 µM				
CSc1nc(-c2cccc3c2CCC3NC(=O)c2cc(F)cc(F)c2)c(-c2ccnc(NC(C)=O)c2)[nH]1 (centres unmarked) [Compound 057, N-(4-(5-(2-acetamidopyridin-4-yl)-2-(methylthio)-1H-imidazol-4-yl)-2,3-dihydro-1H-inden-1-yl)-3,5-difluorobenzamide]			> 100 µM	> 100 µM				
